Test results from US12435061B2 (priority 2020, dated 2025).
Read-outs that look alike come from different tables or passages of the source.

Legend:
[1] = molecular target: T1, hTRPV3 (Homo sapiens (Human), UniProt Q8NET8); assay: hTRPV3 HAMA IC50 assay (Hamamatsu FDSS6000 calcium flux, TRex-293 cells)
Experimental: IC50s were calculated using CBIS from ChemInnovation (San Diego).

[2] = molecular target: T1, hTRPV3; assay: Whole-cell patch clamp, hTRPV3 Phase 1 / Phase 2 currents; assay type: cell-based
Procedure, shortened: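 Whole-cell recordings on induced TRPV3 cells replated on coverslips, held at −40 mV with 400 ms ramps from −120 to +100 mV every 5 s; currents read at −80 and +80 mV. Ringer's external solution; current activated by heating to ≥28 °C or 20 μM 2-APB.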

[3] = Aqueous solubility assay in Normal Ringer Solution; settings: Normal Ringer Solution; for Solubility Ringer (nM): room temperature
Experimental: Following vortex and incubation for a sufficient time (e.g. 40 minutes at room temperature), solutions were filtered, quenched with acetonitrile, and analyzed by Liquid Chromotography. Solubility Limits were determined by comparison to a standard curve.

[4] = Phase 1 current, inward, whole-cell patch clamp, read-out: hTRPV3 Patch P1 Inwd
[5] = Phase 1 current, read-out: hTRPV3 (nM) (Phase 1)
[6] = Phase 2 current, inward, whole-cell patch clamp, read-out: hTRPV3 Patch P2 Inwd
[7] = Phase 2 current, read-out: hTRPV3 (nM) (Phase 2)

T1 sequence (Q8NET8 whole entry): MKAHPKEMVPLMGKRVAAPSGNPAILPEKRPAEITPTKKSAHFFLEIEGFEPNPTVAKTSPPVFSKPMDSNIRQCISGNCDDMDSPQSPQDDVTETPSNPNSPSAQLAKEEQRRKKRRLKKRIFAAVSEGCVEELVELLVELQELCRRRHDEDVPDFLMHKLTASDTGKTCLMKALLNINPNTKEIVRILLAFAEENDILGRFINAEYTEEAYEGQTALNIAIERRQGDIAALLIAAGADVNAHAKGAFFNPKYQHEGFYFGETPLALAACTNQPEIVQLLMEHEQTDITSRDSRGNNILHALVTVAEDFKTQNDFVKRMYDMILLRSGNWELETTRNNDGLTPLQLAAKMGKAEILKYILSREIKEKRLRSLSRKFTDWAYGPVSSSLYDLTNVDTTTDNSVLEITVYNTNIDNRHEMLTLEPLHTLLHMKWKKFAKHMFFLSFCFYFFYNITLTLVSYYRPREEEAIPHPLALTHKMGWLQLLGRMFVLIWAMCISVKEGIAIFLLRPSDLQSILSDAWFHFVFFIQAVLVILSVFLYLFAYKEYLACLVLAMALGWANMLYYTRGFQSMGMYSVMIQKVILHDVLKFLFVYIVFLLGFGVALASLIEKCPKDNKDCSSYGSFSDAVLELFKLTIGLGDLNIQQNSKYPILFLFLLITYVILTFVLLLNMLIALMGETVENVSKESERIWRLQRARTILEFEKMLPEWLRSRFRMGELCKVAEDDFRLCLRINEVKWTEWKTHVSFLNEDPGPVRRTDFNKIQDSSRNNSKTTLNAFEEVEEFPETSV

Row | SMILES | hTRPV3 HAMA IC50 (nM) (5 min) [1] | IC50 [2, 4] [nM] | IC50 [2, 5] [nM] | IC50 [2, 6] [nM] | IC50 [2, 7] [nM] | Solubility Ringer (nM) [3] | hTRPV3 (nM) (Phase 1) [2] | solubility at 40 min ([3]; saline or isotonic, kinetic from dmso stock) [µM] | hTRPV3 HAMA IC50 (nM) (30 min) [1]
1 | N#Cc1cc(C(F)(F)F)ccc1N1CC[C@H](Oc2ccc(C(F)(F)F)cn2)C1 [Compound 1-57] | no fit (5 min) | 100 to 1000 | 706 | 100 to 1000 | 219 | BLQ | – | – | –
2 | NC(=O)c1cc(-c2ccccc2Cl)ccc1N1CC[C@H](Oc2ccc(C(F)(F)F)cn2)C1 [Compound 1-64, (S)-2′-chloro-4-(3-(5-(trifluoromethyl)pyridin-2-yloxy)pyrrolidin-1-yl)biphenyl-3-carboxamide] | no fit (5 min) | 100 to 1000 | 145 | 100 to 1000 | 160 | BLQ | – | – | –
3 | O=[N+]([O-])c1cc(-c2ccccc2)ccc1N1CC[C@H](Oc2ccc(C(F)(F)F)cn2)C1 [Compound 1-66, (S)-2-(1-(3-nitrobiphenyl-4-yl)pyrrolidin-3-yloxy)-5-(trifluoromethyl)pyridine] | no fit (5 min) | – | – | – | – | BLQ | Incomplete Block (Phase 1) | – | –
4 | NC(=O)c1cc(-c2ccccc2)ccc1N1CC[C@H](Oc2ccc3cc(Cl)ccc3n2)C1 [Compound 1-67, (S)-4-(3-(6-chloroquinolin-2-yloxy)pyrrolidin-1-yl)biphenyl-3-carboxamide] | no fit (5 min) | > 1000 | 1270 | 100 to 1000 | 585 | BLQ | – | – | –
5 | Cc1ccccc1-c1ccc(N2CC[C@H](Oc3ccc(C(F)(F)F)cn3)C2)c(CO)c1 [Compound 1-128, (S)-(2′-methyl-4-(3-(5-(trifluoromethyl)pyridin-2-yloxy)pyrrolidin-1-yl)biphenyl-3-yl)methanol] | no fit (5 min) | 100 to 1000 | 114 | – | – | BLQ | – | – | –
6 | OCc1cc(-c2ccccc2OC(F)(F)F)ccc1N1CC[C@H](Oc2ccc(C(F)(F)F)cn2)C1 [Compound 1-161, (S)-(2′-(trifluoromethoxy)-4-(3-(5-(trifluoromethyl)pyridin-2-yloxy)pyrrolidin-1-yl)biphenyl-3-yl)methanol] | no fit (5 min) | 10 to 100 | 93.4 | – | – | BLQ | – | – | –
7 | OCCCc1cc(-c2ccccc2Cl)ccc1N1CC[C@H](Oc2ccc(C(F)(F)F)cn2)C1 [Compound 1-164] | no fit (5 min) | 100 to 1000 | 190 | – | – | BLQ | – | – | –
8 | Cc1ccccc1-c1ccc(N2CC[C@H](Oc3ncccc3C)C2)c(CO)n1 [Compound 1-179, (S)-(3-(3-(3-methylpyridin-2-yloxy)pyrrolidin-1-yl)-6-o-tolylpyridin-2-yl)methanol] | no fit (5 min) | 100 to 1000 | 329 | 100 to 1000 | ~841 | – | – | > 0.73 | –
9 | CCc1ccccc1-c1ccc(N2CC[C@H](Oc3ccc(C)cn3)C2)c(CO)n1 [Compound 1-185, (S)-(6-(2-ethylphenyl)-3-(3-(5-methylpyridin-2-yloxy)pyrrolidin-1-yl)pyridin-2-yl)methanol] | no fit (5 min) no fit (30 min) | > 1000 | > 3200 | > 1000 | 2950 | – | – | – | no fit (5 min) no fit (30 min)
10 | COc1ccccc1-c1ccc(N2CC[C@H](Oc3ncccc3C)C2)c(CO)n1 [Compound 1-186, (S)-(6-(2-methoxyphenyl)-3-(3-(3-methylpyridin-2-yloxy)pyrrolidin-1-yl)pyridin-2-yl)methanol] | no fit (5 min) no fit (30 min) | > 1000 | 1010 | 100 to 1000 | 980 | – | – | – | no fit (5 min) no fit (30 min)
11 | CCc1ccccc1-c1ccc(N2CC[C@H](Oc3ncccc3C)C2)c(CO)n1 [Compound 1-187, (S)-(6-(2-ethylphenyl)-3-(3-(3-methylpyridin-2-yloxy)pyrrolidin-1-yl)pyridin-2-yl)methanol] | no fit (5 min) no fit (30 min) | 100 to 1000 | 720 | > 1000 | ~1000 | – | – | – | no fit (5 min) no fit (30 min)
12 | OCc1ncc(-c2ccccc2)cc1N1CC[C@H](Oc2ccc(C(F)(F)F)cn2)C1 [Compound 1-188, (S)-(5-phenyl-3-(3-(5-(trifluoromethyl)pyridin-2-yloxy)pyrrolidin-1-yl)pyridin-2-yl)methanol] | no fit (5 min) no fit (30 min) | > 1000 | > 3200 | – | – | – | – | – | no fit (5 min) no fit (30 min)
13 | Cc1cccnc1O[C@H]1CCN(c2ccc(-c3ccccc3Cl)cc2CCO)C1 [Compound 1-194, (S)-2-(2′-chloro-4-(3-(3-methylpyridin-2-yloxy)pyrrolidin-1-yl)biphenyl-3-yl)ethanol] | no fit (5 min) | 100 to 1000 | 327 | – | – | – | – | – | –
14 | Cc1ccc(O[C@H]2CCN(c3ccc(-c4ccccn4)cc3CO)C2)nc1 [Compound 1-220, (S)-(2-(3-(5-methylpyridin-2-yloxy)pyrrolidin-1-yl)-5-(pyridin-2-yl)phenyl)methanol] | no fit (5 min) no fit (30 min) | > 1000 | > 3200 | – | – | – | – | – | no fit (5 min) no fit (30 min)
15 | OCc1ccc(Oc2ccccc2Cl)cc1N1CC[C@H](Oc2ccc(C(F)(F)F)cn2)C1 [Compound 1-224, (S)-(4-(2-chlorophenoxy)-2-(3-(5-(trifluoromethyl)pyridin-2-yloxy)pyrrolidin-1-yl)phenyl)methanol] | no fit (5 min) no fit (30 min) | 100 to 1000 | 161 | – | – | – | – | – | no fit (5 min) no fit (30 min)
16 | OCc1ccc(-c2ccccc2Cl)cc1N1CC[C@H](Oc2ccc(C(F)(F)F)cn2)C1 [Compound 1-225, (S)-(2′-chloro-3-(3-(5-(trifluoromethyl)pyridin-2-yloxy)pyrrolidin-1-yl)biphenyl-4-yl)methanol] | no fit (5 min) no fit (30 min) | 100 to 1000 | 215 | – | – | – | – | – | no fit (5 min) no fit (30 min)
17 | Cc1ccccc1Oc1ccc(N2CC[C@H](Oc3ccc(C(F)(F)F)cn3)C2)c(CO)n1 [Compound 1-226, (S)-(6-(o-tolyloxy)-3-(3-(5-(trifluoromethyl)pyridin-2-yloxy)pyrrolidin-1-yl)pyridin-2-yl)methanol] | no fit (5 min) no fit (30 min) | 100 to 1000 | ~158 | – | – | – | – | – | no fit (5 min) no fit (30 min)
18 | CCc1ccccc1-c1ccc(CO)c(N2CC[C@H](Oc3ccc(C(F)(F)F)cn3)C2)c1 [Compound 1-227, (S)-(2′-ethyl-3-(3-(5-(trifluoromethyl)pyridin-2-yloxy)pyrrolidin-1-yl)biphenyl-4-yl)methanol] | no fit (5 min) no fit (30 min) | 100 to 1000 | 200 | – | – | – | – | – | no fit (5 min) no fit (30 min)
19 | CCc1ccccc1Oc1ccc(CO)c(N2CC[C@H](Oc3ccc(C(F)(F)F)cn3)C2)c1 [Compound 1-228, (S)-(4-(2-ethylphenoxy)-2-(3-(5-(trifluoromethyl)pyridin-2-yloxy)pyrrolidin-1-yl)phenyl)methanol] | no fit (5 min) no fit (30 min) | 10 to 100 | 62.1 | – | – | – | – | – | no fit (5 min) no fit (30 min)
20 | Cc1ccccc1Oc1ccc(CO)c(N2CC[C@H](Oc3ccc(C(F)(F)F)cn3)C2)c1 [Compound 1-230, (S)-(4-(o-tolyloxy)-2-(3-(5-(trifluoromethyl)pyridin-2-yloxy)pyrrolidin-1-yl)phenyl)methanol] | no fit (5 min) no fit (30 min) | 100 to 1000 | 198 | – | – | – | – | – | no fit (5 min) no fit (30 min)
21 | OCc1ccc(-c2ccccc2Cl)cc1N1CC[C@H](Oc2ncccc2Cl)C1 [Compound 1-234, (S)-(2′-chloro-3-(3-(3-chloropyridin-2-yloxy)pyrrolidin-1-yl)biphenyl-4-yl)methanol] | no fit (5 min) no fit (30 min) | 100 to 1000 | 737 | – | – | – | – | – | no fit (5 min) no fit (30 min)
22 | Cc1ccccc1-c1ccc(CO)c(N2CC[C@H](Oc3ccc(C(F)(F)F)cn3)C2)c1 [Compound 1-239, (S)-(2′-methyl-3-(3-(5-(trifluoromethyl)pyridin-2-yloxy)pyrrolidin-1-yl)biphenyl-4-yl)methanol] | no fit (5 min) no fit (30 min) | 100 to 1000 | 607 | – | – | – | – | – | no fit (5 min) no fit (30 min)
23 | Cc1ccccc1-c1ccc(CO)c(N2CC[C@H](Oc3ncccc3Cl)C2)c1 [Compound 1-240, (S)-(3-(3-(3-chloropyridin-2-yloxy)pyrrolidin-1-yl)-2′-methylbiphenyl-4-yl)methanol] | no fit (5 min) no fit (30 min) | 100 to 1000 | 934 | – | – | – | – | – | no fit (5 min) no fit (30 min)
